Laboratory results: patent EP0308189B1, “Skin cleansing toilet bar with low moisture content” (THE PROCTER & GAMBLE COMPANY, priority 1987, dated 1989)

Test system: skin epidermis

Relative Skin Barrier Penetration Value: 40 | Total mg Water Penetrating the Skin in 24 Hours: 60.3 ± 17.7 mg
Substance: Cocoyl Isethionate
